The text below walks through data of patent publication US7932272B2, “Antifungal agent containing heterocyclic compound” (Eisai R&D Management Co., Ltd., priority 2003, dated 2011).

The subject of experiment [1] is C. albicans E81022 strain. Kind of experiment: Anti-Candida activity (MIC measurement). It is filed as cell-based. The settings on record: E81022STRAIN, MIC by visual inspection, C. albicans E81022, 48 hours at 30 to 35° C. How it is done: (§1) For the C. albicans E81022 strain, a fungal suspension from a standing culture for 48 hours at 30° C. in a Sabouraud dextrose liquid culture medium (SDB) was diluted 10,000-fold with a 1.3-fold concentrated SDB to adjust to a fungal suspension of 1 to 2×10^4 cells/ml. For the A. fumigatus Tsukuba strain, −80° C. stored strain was diluted 1,000-fold with a 1.3-fold concentrated SDB to adjust to a fungal suspension of 2 to 3×10^3 cells/ml.
(§2) Using a U-bottomed 96 well plate, 8 samples/plate (A to H) of sample dilution solutions were prepared. On the 3rd row of each plate was dispensed 240 μl of sterilized and distilled water, and on the 2nd and 4th to 12th rows were dispensed 125 μl of 4% dimethylsulfoxide solution. Weighed sample was dissolved in dimethylsulfoxide to prepare a 2.5 to 20 mg/ml solution, 10 μl of this solution was then added to the 3rd row of the prepared plate, and 10 steps of two-fold step dilutions (125 μl of solution+125 μl of 4% dimethylsulfoxide) were performed on the plate.
(§3) The fungal suspension preprared in (1) was used in the amount of 75 μl/well to inoculate a V-bottomed or flat-bottomed 96 well plate containing 25 μl/well of test compound dilution solution prepared in (2), and a standing culture was carried out aerobically for 48 hours at 30 to 35° C.

For experiment [2], the system named is A. fumigatus Tsukuba strain. Kind of experiment: Anti-Aspergillus activity (MIC measurement). The experiment is classed as cell-based. As to conditions: MIC by visual inspection, 48 hours at 30 to 35° C. The protocol: as §1, §2, §3

Values after ≈ are worked out from the molar mass of the structure shown.

Turning to `Cc1sc(CNC(=O)c2cccnc2N)cc1Oc1ccccc1` [Example A-170, 2-Amino-N-(5-methyl-4-phenoxy-thiophen-2-ylmethyl)-nicotinamide], the minimal inhibitory concentration (MIC) in experiment [1] was 0.78 µg/mL (≈ 2.3 µM).
On to `O=C(NCc1cccc(OCC2CC2)c1)c1ccc2ncccc2c1` [Example E-43, Quinoline-6-carboxylic acid 3-cyclopropylmethoxy-benzylamide], for which the minimum inhibitory concentration (MIC) in experiment [1] stood at 0.39 µg/mL (≈ 1.17 µM).
Consider `O=C(NCc1cccc(Oc2ccccc2)c1)c1ccc2ncccc2c1` [Example E-11, Quinoline-6-carboxylic acid 3-phenoxybenzylamide], for which the figures for the MIC in experiment [2] and in experiment [1] were 1.56 µg/mL (≈ 4.4 µM) and 0.39 µg/mL (≈ 1.1 µM), respectively.
In the case of `O=C(NCc1cccc(Oc2ccccc2)c1)c1ccc2[nH]ccc2c1` [Example V-1, 1H-Indole-5-carboxylic acid 3-phenoxybenzylamide], the MIC in experiment [2] came to 6.25 µg/mL (≈ 18.3 µM).
Turning to `O=C(NCc1ccn(Cc2ccccc2)c1)c1ccc2ncccc2c1` [Example E-57, Quinoline-6-carboxylic acid (1-benzyl-1H-pyrrol-3-ylmethyl)-amide], the results for the MIC in experiment [2] and in experiment [1] were 6.25 µg/mL (≈ 18.3 µM) and 0.2 µg/mL (≈ 0.586 µM), respectively.
For `O=C(NCc1ccc(OCc2ccccc2)cc1)c1ccc2ncccc2n1` [Example D-2, [1.5]Naphthylidine-2-carboxylic acid 4-benzyloxybenzylamide] the same measures were 0.78 µg/mL (≈ 2.11 µM) and 0.78 µg/mL (≈ 2.11 µM).
Regarding `O=C(NCc1cccc(C=C2CCCC2)c1)c1ccc2ncccc2c1` [Example E-51, 6-Quinolinecarboxylic acid 3-cyclopentylydenemethylbenzylamide], the MIC worked out at 3.13 µg/mL (≈ 9.14 µM) in experiment [2] and 0.78 µg/mL (≈ 2.28 µM) in experiment [1].
In experiment [1], `COCCCc1ccc(C(=O)NCc2ccc(Oc3ccccc3)s2)c(N)n1` [Example A-124, 2-Amino-6-(3-methoxy-propyl)-N-(5-phenoxy-thiophen-2-ylmethyl)-nicotinamide] registered an MIC of 1.56 µg/mL (≈ 3.92 µM).
On to `O=C(NCc1cccc(-c2ccccc2)c1)c1ccc2ncccc2c1` [Example E-13, Quinoline-6-carboxylic acid (biphenyl-3-ylmethyl)-amide], for which the minimum inhibitory concentration (MIC) in experiment [2] is 1.56 µg/mL (≈ 4.61 µM); in experiment [1] it was 0.78 µg/mL (≈ 2.3 µM).
`CC(=O)c1ccc(C(=O)NCc2ccc(Oc3ccccc3)s2)c(N)n1` [Example A-98, 6-Acetyl-2-amino-N-(5-phenoxy-thiophen-2-ylmethyl)-nicotinamide]: the MIC in experiment [2] turned out to be 1.56 µg/mL (≈ 4.25 µM); in experiment [1] it was 0.39 µg/mL (≈ 1.06 µM).
As to `Nc1nc(NCc2ccccc2)ccc1C(=O)NCc1ccc(Oc2ccccc2)s1` [Example A-126, 2-Amino-6-benzylamino-N-(5-phenoxy-thiophen-2-ylmethyl)-nicotinamide], the MIC in experiment [2] is 6.25 µg/mL (≈ 14.5 µM); in experiment [1] it was 0.78 µg/mL (≈ 1.81 µM).
Take `Nc1ncncc1C(=O)NCc1ccc(Oc2ccccc2)s1` [Example B-1, 4-Amino-pyrimidine-5-carboxylic acid (5-phenoxy-thiophen-2-ylmethyl)-amide]: the minimal inhibitory concentration (MIC) in experiment [2] came out at 6.25 µg/mL (≈ 19.1 µM); in experiment [1] it was 3.13 µg/mL (≈ 9.59 µM).
Consider `O=C(NCc1ccc(Oc2ccccc2)s1)c1ccc2nccn2c1` [Example Q-7, Imidazo[1,2-a]pyridine-6-carboxylic acid (5-phenoxy-thiophen-2-ylmethyl)-amide], for which the minimum inhibitory concentration (MIC) in experiment [2] came to 6.25 µg/mL (≈ 17.9 µM); in experiment [1] it was 0.39 µg/mL (≈ 1.12 µM).
Take `O=C(NCc1ccc(OCc2ccccc2)cc1F)c1ccc2ncccc2c1` [Example E-53, Quinoline-6-carboxylic acid 4-benzyloxy-2-fluoro-benzalamide]: the figures for the MIC in experiment [2] and in experiment [1] were 3.13 µg/mL (≈ 8.1 µM) and 1.56 µg/mL (≈ 4.04 µM), respectively.
Turning to `CO/N=C(\NCc1ccc(OCc2ccccc2)cc1)c1ccc2ncccc2c1` [Example E-44, N-(4-Benzyloxy-benzyl)-N′-methoxy-quinoline-6-carboxamidine], in experiment [1], the MIC turned out to be 3.13 µg/mL (≈ 7.87 µM).
In experiment [1], `Nc1ccc(NCCNc2ccc(C(=O)NCc3ccc(Oc4ccccc4)s3)c(N)n2)cc1` [Example A-92, 2-Amino(2-(4-amino-phenylamine)-ethylamino)-N-(5-phenoxy-thiophen-2-ylmethyl)-nicotinamide] returned a minimal inhibitory concentration (MIC) of 3.13 µg/mL (≈ 6.6 µM).
For `Nc1ncccc1C(=S)NCc1ccc(OCc2ccccc2)cc1` [Example A-22, 2-Amino-N-(4-benzyloxy-benzyl)-thionicotinamide], the minimum inhibitory concentration (MIC) in experiment [2] is 3.13 µg/mL (≈ 8.96 µM); in experiment [1], 0.78 µg/mL (≈ 2.23 µM).
Turning to `O=C(NCc1cc(Oc2cccc(F)c2)cs1)c1ccc2ncccc2c1` [Example E-69, Quinoline-6-carboxylic acid (4-(3-fluoro-phenoxy)-thiophen-2-ylmethyl)-amide], the MIC in experiment [2] is 1.56 µg/mL (≈ 4.12 µM); in experiment [1] it was 0.1 µg/mL (≈ 0.264 µM).
For `c1ccc(COc2ccc(CNc3ccc4ncccc4c3)cc2)cc1` [Example W-2, (4-Benzyloxy-benzyl)-quinolin-6-yl-amine] the same measures were 0.78 µg/mL (≈ 2.29 µM) and 1.56 µg/mL (≈ 4.58 µM).
As for `O=C(NCc1ccc(OCc2cccc(F)c2)cc1)c1ccc2ncsc2c1` [Example L-4, Benzothiazole-6-carboxylic acid 4-(3-fluoro-benzyloxy)-benzylamide], the MIC in experiment [2] and in experiment [1] was 0.2 µg/mL (≈ 0.51 µM) throughout.
The molecule `CNc1ncccc1C(=O)NCc1ccc(Oc2ccccc2)s1` [Example A-136, 2-Methylamino-N-(5-phenoxy-thiophen-2-ylmethyl)-nicotinamide] gave an MIC in experiment [1] of 1.56 µg/mL (≈ 4.6 µM).
For the molecule `Nc1nc(NCC(=O)O)ccc1C(=O)NCc1ccc(Oc2ccccc2)s1` [Example A-99, (6-Amino-5-((5-phenoxy-thiophen-2-ylmethyl)-carbamoyl)-pyridin-2-ylamino)-acetic acid], the MIC in experiment [2] worked out at 6.25 µg/mL (≈ 15.7 µM); in experiment [1], 3.13 µg/mL (≈ 7.86 µM).
As for `Nc1ncccc1C(=O)NCc1ccc(CCNc2ccccc2)o1` [Example A-8, 2-Amino-N-(5-(2-phenylamino-ethyl)-furan-2-ylmethyl)-nicotinamide], the MIC in experiment [2] was found to be 6.25 µg/mL (≈ 18.6 µM); in experiment [1], 3.13 µg/mL (≈ 9.3 µM).
Regarding `Nc1nc(NCCCn2nccn2)ccc1C(=O)NCc1ccc(Oc2ccccc2)s1` [Example A-81, 2-Amino-N-(5-phenoxy-thiophen-2-ylmethyl)-6-(3-[1,2,3]-triazol-2-yl-propylamino)-nicotinamide], the MIC was 6.25 µg/mL (≈ 13.9 µM) in experiment [2] and 3.13 µg/mL (≈ 6.96 µM) in experiment [1].
As for `N#Cc1cccc(Oc2ccc(CNC(=O)c3ccc4ncccc4c3)s2)c1` [Example E-64, Quinoline-6-carboxylic acid (5-(3-cyano-phenoxy)-thiophen-2-ylmethyl)-amide], the MIC in experiment [2] was 6.25 µg/mL (≈ 16.2 µM); in experiment [1], 0.2 µg/mL (≈ 0.519 µM).
For the molecule `COc1ccc(C(=O)NCc2ccc(Oc3ccccc3)s2)c(N)n1` [Example A-116, 2-Amino-6-methoxy-N-(5-phenoxy-thiophen-2-ylmethyl)-nicotinamide], the results for the MIC in experiment [2] and in experiment [1] were 3.13 µg/mL (≈ 8.81 µM) and 0.39 µg/mL (≈ 1.1 µM), respectively.
As for `O=C(Cc1cccc(Oc2ccccc2)c1)Nc1ccc2ncccc2c1` [Example E-19, 2-(3-Phenoxy-phenyl)-N-quinolin-6-yl-acetamide], the minimal inhibitory concentration (MIC) in experiment [2] was determined as 1.56 µg/mL (≈ 4.4 µM); in experiment [1] it was 0.78 µg/mL (≈ 2.2 µM).
As to `Nc1ccc(C(=O)NCc2ccc(Oc3ccc(F)cc3)s2)cn1` [Example A-139, 6-Amino-N-(5-(4fluoro-phenoxy)-thiophen-2-ylmethyl)-nicotinamide], the MIC in experiment [2] and in experiment [1] was 1.56 µg/mL (≈ 4.54 µM) throughout.
Consider `O=C(NCc1ccc(Nc2ccccc2)cc1)c1ccc2ncccc2c1` [Example E-25, Quinoline-6-carboxylic acid 4-phenylamino-benzylamide], for which the MIC in experiment [1] amounted to 1.56 µg/mL (≈ 4.41 µM).
`O=C(NCc1cccc(Oc2ccccc2)c1)c1ccc2nccnc2c1` [Example I-1, Quinoxaline-6-carboxylic acid 3-phenoxybenzylamide]: the MIC in experiment [2] worked out at 1.56 µg/mL (≈ 4.39 µM); in experiment [1], 0.78 µg/mL (≈ 2.19 µM).
Regarding `O=C(NCc1ccc(Oc2ccccc2)s1)c1cnc2ccsc2c1` [Example U-2, Thieno[3,2-b]pyridine-6-carboxylic acid (5-phenoxy-thiophen-2-yl methyl)-amide], the minimum inhibitory concentration (MIC) in experiment [2] was 3.13 µg/mL (≈ 8.54 µM); in experiment [1] it was 0.78 µg/mL (≈ 2.13 µM).
For `O=C(NCc1ccc(Oc2ccccc2)s1)c1ccc2ncsc2c1` [Example L-7, Benzothiazole-6-carboxylic acid (5-phenoxythiophen-2-ylmethyl)-amide], the MIC in experiment [2] came out at 0.78 µg/mL (≈ 2.13 µM); in experiment [1], 0.1 µg/mL (≈ 0.273 µM).
As to `O=C(NCc1cccc(Oc2ccccc2)c1)c1ccc2nnccc2c1` [Example F-1, Cinnoline-6-carboxylic acid 3-phenoxy-benzylamide], in experiment [1], it took 3.13 µg/mL (≈ 8.81 µM) to inhibit growth (MIC).
Regarding `Cc1nc2ccc(C(=O)NCc3cccc(Oc4ccccc4)c3)cc2o1` [Example K-1, 2-Methyl-benzoxazole-6-carboxylic acid 3-phenoxybenzylamide], the results for the minimum inhibitory concentration (MIC) in experiment [2] and in experiment [1] were 1.56 µg/mL (≈ 4.35 µM) and 0.78 µg/mL (≈ 2.18 µM), respectively.
Regarding `Nc1nc(OCCO)ccc1C(=O)NCc1ccc(Oc2ccccc2)s1` [Example A-112, 2-Amino-6-(2-hydroxyethoxy)-N-(5-phenoxy-thiophen-2-ylmethyl)-nicotinamide], the MIC in experiment [2] is 6.25 µg/mL (≈ 16.2 µM); in experiment [1], 3.13 µg/mL (≈ 8.12 µM).
`O=C(NCc1cccc(Oc2ccccc2)c1)c1ccc2cnccc2c1` [Example G-1, Isoquinoline-6-carboxylic acid 3-phenoxybenzylamide]: 6.25 µg/mL (≈ 17.6 µM) was the least that counted as inhibitory in experiment [1] (MIC).
Regarding `Nc1nc2c(cc1C(=O)NCc1ccc(Oc3ccccc3)s1)CCC2` [Example C-1], in experiment [1], inhibition of growth (MIC) required 0.1 µg/mL (≈ 0.274 µM).

As a reminder, the MIC is the smallest concentration in the dilution series that meets the test's criterion for growth inhibition.
